According to US8163909B2, “Substituted hydroxyethyl amine compounds as beta-secretase modulators and methods of use” (Amgen Inc., priority 2007, dated 2012):
Where two headings read alike, the source gives them in different places.

Key:
[1] = biological target: Beta Secretase enzyme (BACE) (Homo sapiens, UniProt P56817); test: In vitro enzymatic BACE FRET (fluorescence resonance energy transfer) assay; assay type: biochemical;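 note: fluorescence read after 1 h with 50 nM quenched peptide substrate spanning the BACE cleavage site, in pH 4.2 acetate buffer containing 10% DMSO and nonionic detergent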
[2] = system: Aβ40 in conditioned medium of cells stably expressing Amyloid Precursor Protein (APP); test: In vitro BACE cell-based assay (Aβ40 in conditioned medium, sandwich ELISA); settings: Homo sapiens;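 note: compounds added as a dilution series, secreted peptide quantified by europium time-resolved fluorescence readout, potency fitted from percent of control versus compound concentration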
CYP3A4 (CYP3A) = CYP3A4 (CYP3A) (Homo sapiens, UniProt P08684); test: in vitro; settings: microsomes, pH 7.4;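 note: inhibition of CYP3A-mediated 1-hydroxymidazolam formation after 10 min incubation with NADPH, quantified by HPLC MS relative to metabolite produced without test compound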
[3] = Microsomal stability assay, rat liver microsomes;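 note: rat liver microsomes (0.25 mg/mL) with about 1 µM compound plus 1 mM NADPH, pH 7.4, 37 °C for 30 min, parent left measured by LC-MS/MS against 0 min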
[4] = Microsomal stability assay, human liver microsomes;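 note: pooled human liver microsomes at 0.25 mg/mL with 1 µM compound and NADPH at 37 °C, pH 7.4, for 30 min, unchanged parent quantified by LC-MS/MS against the 0 min sample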
CYP2D6 = CYP2D6 (Homo sapiens, UniProt P10635); test: CYP2D6 inhibition assay (bufuralol, pooled human liver microsomes)
[5] = BACE enzyme assay, read-out: BACE1 FRET assay
[6] = HEK293, HEK cells, read-out: HEK cell assay
[7] = 2D6 IC50 (uM), CYP enzyme inhibition
[8] = BACE enzyme assay, IC50's in uM, read-out: BACE1 FRET assay
[9] = HEK293, HEK cell-based assay, IC50's in uM, read-out: HEK cell assay
[10] = BACE enzyme assay IC50, read-out: BACE1 FRET assay
[11] = HEK293, HEK cell-based assay IC50, read-out: HEK cell assay
[12] = 2D6 IC50 (uM), CYP2D6 inhibition
[13] = Table 2, read-out: BACE1 FRET assay
[14] = HEK293, Table 2, HEK cells, read-out: HEK cell assay
[15] = 2D6 IC50, CYP enzyme inhibition
[16] = HEK293, cell-based assay, HEK cells, IC50's in uM, read-out: HEK cell assay
[17] = read-out: BACE1 FRET assay (IC50)
[18] = HEK293, HEK cells, read-out: HEK cell assay (IC50)

CYP2D6, sequence (P10635 whole entry): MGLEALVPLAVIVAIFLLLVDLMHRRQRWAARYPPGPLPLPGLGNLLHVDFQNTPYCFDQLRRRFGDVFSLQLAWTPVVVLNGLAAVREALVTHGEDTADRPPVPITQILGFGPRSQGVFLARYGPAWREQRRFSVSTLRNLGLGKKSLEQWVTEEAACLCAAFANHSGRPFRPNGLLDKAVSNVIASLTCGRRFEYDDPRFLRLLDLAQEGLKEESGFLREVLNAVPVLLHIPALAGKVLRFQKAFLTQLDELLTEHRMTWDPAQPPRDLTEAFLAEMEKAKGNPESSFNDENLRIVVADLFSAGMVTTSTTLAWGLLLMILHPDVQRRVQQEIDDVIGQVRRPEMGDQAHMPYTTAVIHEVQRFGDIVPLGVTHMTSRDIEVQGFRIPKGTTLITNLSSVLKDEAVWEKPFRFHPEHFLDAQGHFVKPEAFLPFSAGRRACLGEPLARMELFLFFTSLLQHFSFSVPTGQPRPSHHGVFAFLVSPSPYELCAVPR
Beta Secretase enzyme (BACE), sequence (P56817 46-501): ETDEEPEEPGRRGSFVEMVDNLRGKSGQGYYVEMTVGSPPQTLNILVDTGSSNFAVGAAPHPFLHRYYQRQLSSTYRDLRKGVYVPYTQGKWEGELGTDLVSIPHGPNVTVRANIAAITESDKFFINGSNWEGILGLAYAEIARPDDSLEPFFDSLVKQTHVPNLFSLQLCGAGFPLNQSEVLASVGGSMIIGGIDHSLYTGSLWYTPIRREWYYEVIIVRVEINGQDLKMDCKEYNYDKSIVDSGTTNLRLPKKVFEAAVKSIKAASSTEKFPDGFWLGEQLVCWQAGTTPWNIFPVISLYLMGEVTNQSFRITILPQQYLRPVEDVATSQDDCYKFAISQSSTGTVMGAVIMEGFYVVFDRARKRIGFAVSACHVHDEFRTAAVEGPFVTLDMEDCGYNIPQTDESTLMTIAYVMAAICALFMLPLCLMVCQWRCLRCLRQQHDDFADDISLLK
CYP3A4 (CYP3A), sequence (P08684 2-503): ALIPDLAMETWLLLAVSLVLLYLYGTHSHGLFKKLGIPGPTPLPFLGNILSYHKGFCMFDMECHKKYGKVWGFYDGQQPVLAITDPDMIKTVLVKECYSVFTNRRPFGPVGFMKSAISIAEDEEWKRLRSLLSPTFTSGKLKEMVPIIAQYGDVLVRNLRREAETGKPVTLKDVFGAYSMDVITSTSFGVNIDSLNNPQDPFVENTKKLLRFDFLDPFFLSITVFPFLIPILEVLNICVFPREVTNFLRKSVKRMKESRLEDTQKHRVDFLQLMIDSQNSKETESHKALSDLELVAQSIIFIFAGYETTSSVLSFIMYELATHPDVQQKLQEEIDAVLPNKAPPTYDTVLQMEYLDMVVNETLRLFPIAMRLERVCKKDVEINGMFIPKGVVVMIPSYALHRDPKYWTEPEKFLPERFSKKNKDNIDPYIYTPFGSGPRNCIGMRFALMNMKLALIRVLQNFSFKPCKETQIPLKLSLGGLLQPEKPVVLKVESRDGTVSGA

Row | SMILES | IC50 (CYP3A4 (CYP3A)) | RLM ([3]; rat liver microsomal data) | HLM ([4]; human liver microsomal data) | IC50 (CYP2D6; [7]) | IC50 [1, 8] | IC50 (CYP2D6; [15]) | also measured
1 | COCC(=O)N[C@@H](Cc1ccc2c(c1)OCO2)[C@H](O)CN[C@H]1CC2(CCC2)Oc2ncc(CC(F)(F)F)cc21 [compound 518] | 300 nM | 82 µL/min/mg | 26 µL/min/mg | 2.7 µM |  |  | IC50 [1, 5]: 0.131 µM; IC50 [2, 6]: 0.34 µM
2 | CC(C)(C)Cc1cnc2c(c1)[C@@H](NC[C@@H](O)[C@H](Cc1ccc(F)cc1)NC(=O)[C@H]1CN(Cc3cscn3)CCO1)CC1(CCC1)O2 [compound 774] | 200 nM | 57 µL/min/mg | 111 µL/min/mg | 5.3 µM | 0.017 µM |  | IC50 [2, 9]: 0.006 µM
3 | CO[C@H](C)C(=O)N[C@@H](Cc1ccc2c(c1)OCO2)[C@H](O)CN[C@H]1CC2(CCC2)Oc2ncc(CC(F)(F)F)cc21 [compound 519] | 300 nM | 71 µL/min/mg | 33 µL/min/mg | 7.4 µM |  |  | IC50 [1, 5]: 0.255 µM; IC50 [2, 6]: 0.81 µM
4 | COCC(=O)N[C@@H](Cc1cccc(F)c1)[C@H](O)CN[C@H]1CC2(CCC2)Oc2c(-c3ccncc3)cc(Cl)cc21 [compound 550] | 200 nM | 315 µL/min/mg | 338 µL/min/mg | 0.5 µM |  |  | IC50 [1, 5]: 0.042 µM; IC50 [2, 6]: 0.474 µM
5 | COC(OC)C(=O)N[C@@H](Cc1ccc2c(c1)OCO2)[C@H](O)CN[C@H]1CC2(CCC2)Oc2ncc(CC(C)C)cc21 [compound 754, N-((1S,2R)-1-(1,3-benzodioxol-5-ylmethyl)-2-hydroxy-3-(((4′S)-6′-(2-methylpropyl)-3′,4′-dihydrospiro[cyclobutane-1,2′-pyrano[2,3-b]pyridin]-4′-yl)amino)propyl)-2,2-dimethoxyacetamide] | 100 nM |  |  |  |  |  | IC50 [1, 10]: 0.037 µM; IC50 [2, 11]: 0.054 µM; RLM ([3]; rat liver microsomes): 86 µL/min/mg; HLM ([4]; human liver microsomes): 29 µL/min/mg; IC50 (CYP2D6; [12]): 3.5 µM
6 | COCC(=O)N[C@@H](Cc1cc(F)cc(F)c1)[C@H](O)CN[C@H]1CC2(CCC2)Oc2c(-c3nccs3)cc(CC(C)C)cc21 [compound 460] | 800 nM | 775 µL/min/mg | 775 µL/min/mg |  |  | 3.9 µM | IC50 [1, 13]: 0.001 µM; IC50 [2, 14]: 0.028 µM
7 | CC(C)(C)Cc1cnc2c(c1)[C@@H](NC[C@@H](O)[C@H](Cc1cccc(-c3nccs3)c1F)NC(=O)[C@@H]1CCCO1)CC1(CCC1)O2 [compound 910] | 100 nM | 153 µL/min/mg | 147 µL/min/mg |  | 0.079 µM | 2.4 µM | IC50 [2, 16]: 0.079 µM
8 | CC(=O)N[C@@H](Cc1cccc(F)c1)[C@H](O)CN[C@H]1CC2(CCC2)Oc2c1cc(CC(C)(C)C)nc2-c1ccncc1 [compound 532] | 200 nM | 91 µL/min/mg | 40 µL/min/mg | 2.6 µM |  |  | IC50 [1, 5]: 0.012 µM; IC50 [2, 6]: 0.022 µM
9 | CO[C@H](C)C(=O)N[C@@H](Cc1cccc(Br)c1)[C@H](O)CN[C@H]1CC2(CCC2)Oc2ncc(CC(C)C)cc21 [compound 801] | 300 nM | 644 µL/min/mg | 399 µL/min/mg | 3.8 µM | 0.016 µM |  | IC50 [2, 9]: 0.118 µM
10 | COCC(=O)N[C@@H](Cc1cccc(F)c1)[C@H](O)CN[C@H]1CC2(CCC2)Oc2c1cc(CC(C)(C)F)cc2-n1ccnc1 [compound 588] | 100 nM |  |  |  |  |  | IC50 [1, 17]: 0.027 µM; IC50 [2, 18]: 0.006 µM; RLM ([3]; rat liver microsomes): 74 µL/min/mg; HLM ([4]; human liver microsomes): 25 µL/min/mg; IC50 (CYP2D6; 2D6 IC50, CYP2D6 inhibition): 0.6 µM
11 | CO[C@H](C)C(=O)N[C@@H](Cc1cc(F)cc(Cl)c1)[C@H](O)CN[C@H]1CC2(CCC2)Oc2ncc(CC(C)(F)F)cc21 [compound 820] | 300 nM | 324 µL/min/mg | 682 µL/min/mg | 3.8 µM | 0.022 µM |  | IC50 [2, 9]: 0.021 µM
12 | COCC(=O)N[C@@H](Cc1ccc2c(c1)OCO2)[C@H]1CN([C@H]2CC3(CCC3)Oc3ncc([C@H](F)C(C)(C)C)cc32)C(=O)O1 [compound 446] | 200 nM | 106 µL/min/mg | 150 µL/min/mg |  |  | 1.2 µM | IC50 [1, 13]: 6.32 µM; IC50 [2, 14]: > 10 µM
13 | C#Cc1cc(F)cc(C[C@H](NC(=O)COC)[C@H](O)CN[C@H]2CC3(CCC3)Oc3ncc(CC(C)C)cc32)c1 [Example 856, N-((1S,2R)-1-(3-ethynyl-5-fluorobenzyl)-2-hydroxy-3-(((4′S)-6′-(2-methylpropyl)-3′,4′-dihydrospiro[cyclobutane-1,2′-pyrano[2,3-b]pyridin]-4′-yl)amino)propyl)-2-methoxyacetamide] | 150 nM | 78 µL/min/mg | 63 µL/min/mg |  | 0.002 µM | 1 µM | IC50 [2, 16]: 0.009 µM
14 | COCC(=O)N[C@@H](Cc1cc(F)cc(F)c1)[C@H](O)CN[C@H]1CC2(CCC2)Oc2c(-c3nccs3)cc(CC(C)(C)C)cc21 [compound 463] | 1100 nM | 662 µL/min/mg | 682 µL/min/mg |  |  | 7.2 µM | IC50 [1, 13]: 0.003 µM; IC50 [2, 14]: 0.048 µM
15 | CC(=O)N[C@@H](Cc1cc2c(c(-c3ccncc3)c1)OCO2)[C@H](O)CN[C@H]1CC2(CCC2)Oc2ncc(CC(C)(C)C)cc21 [compound 645] | 100 nM |  |  |  |  |  | IC50 [1, 17]: 0.441 µM; IC50 [2, 18]: 0.406 µM; RLM ([3]; rat liver microsomes): 62 µL/min/mg; HLM ([4]; human liver microsomes): 451 µL/min/mg; IC50 (CYP2D6; 2D6 IC50, CYP2D6 inhibition): 0.3 µM
16 | CC(=O)N[C@@H](Cc1ccc(F)cc1)[C@H](O)CN[C@H]1CC2(CCC2)Oc2c1cc(CC(C)(C)C)nc2NC1CCC1 [compound 497] | 3300 nM | 172 µL/min/mg | 157 µL/min/mg | 2.6 µM |  |  | IC50 [1, 5]: 0.077 µM; IC50 [2, 6]: 0.1 µM
17 | CO[C@H](C)C(=O)N[C@@H](Cc1cc(-c2nccs2)ccc1F)[C@H](O)CN[C@H]1CC2(CCC2)Oc2ncc(CC(C)(C)C)cc21 [compound 898] | 100 nM | 121 µL/min/mg | 67 µL/min/mg |  | 0.01 µM | 1 µM | IC50 [2, 16]: 0.014 µM
18 | CCOCC(=O)N[C@@H](Cc1cccc(-c2ncco2)c1)[C@H](O)CN[C@H]1CC2(CCC2)Oc2ncc(CC(C)(C)C)cc21 [compound 901] | ≥ 27000 nM | 62 µL/min/mg | 74 µL/min/mg |  | 0.01 µM | 24.8 µM | IC50 [2, 16]: 0.032 µM
19 | COCC(=O)N[C@@H](Cc1cc(F)cc(F)c1)[C@H](O)CN[C@H]1CC2(CCC2)Oc2c1cc(CC(C)(C)C)nc2-n1ccnc1 [compound 494] | 200 nM | 63 µL/min/mg | 30 µL/min/mg | 1.2 µM |  |  | IC50 [1, 5]: 0.02 µM; IC50 [2, 6]: 0.072 µM
20 | CO[C@H](C)C(=O)N[C@@H](Cc1cc(F)cc(-c2nccs2)c1)[C@H](O)CN[C@H]1CC2(CCC2)Oc2ncc(CC(C)C)cc21 [Example 761] | 100 nM | 74 µL/min/mg | 85 µL/min/mg | 0.7 µM | 1.62 µM |  | IC50 [2, 9]: 0.375 µM
21 | COCC(=O)N[C@@H](Cc1cc(F)cc(F)c1)[C@H](O)CN[C@H]1CC(C)(C)Oc2c1cc(Br)c1c2OCO1 [compound 746] | 200 nM |  |  |  |  |  | IC50 [1, 10]: 0.275 µM; IC50 [2, 11]: 0.185 µM; RLM ([3]; rat liver microsomes): 144 µL/min/mg; HLM ([4]; human liver microsomes): 150 µL/min/mg; IC50 (CYP2D6; [12]): 3.8 µM
